Columns and labels:
MCL-1 = MCL-1 (Homo sapiens (Human), UniProt Q07820); experiment: Cell free Mcl-1:Bim affinity assay (fluorescence polarization competition); format: binding; conditions: 15 nM MCL-1, 5 nM FITC-Bim, 1 hour at room temperature; class symbols; read-out: BIM_Ki
How it was run: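 Compounds competed with FITC-labelled Bim peptide (5 nM) for MCL-1 (15 nM) in HEPES/NaCl buffer with 1% DMSO, 1 h at room temperature. Fluorescence polarization (535 nm emission) gave % inhibition versus DMSO and positive controls; IC50 from 10-point curves, converted to Ki by the Nikolovska-Coleska equation.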

H929 cells = experiment: Cell viability assay (H929 10 FBS); format: cell-based; conditions: Homo sapiens, NCI-H929, 24 hours, read-out: H929_10FBS IC50
How it was run: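 H929 cells, 4000/well, in RPMI 1640 with 10% FBS, sodium pyruvate, HEPES and glucose were exposed to compound 24 h at 37 °C. Viability read as luminescence after 30-60 min at RT with CellTiter-Glo or ATPlite 1 Step.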

MCL-1, sequence (Q07820 whole entry): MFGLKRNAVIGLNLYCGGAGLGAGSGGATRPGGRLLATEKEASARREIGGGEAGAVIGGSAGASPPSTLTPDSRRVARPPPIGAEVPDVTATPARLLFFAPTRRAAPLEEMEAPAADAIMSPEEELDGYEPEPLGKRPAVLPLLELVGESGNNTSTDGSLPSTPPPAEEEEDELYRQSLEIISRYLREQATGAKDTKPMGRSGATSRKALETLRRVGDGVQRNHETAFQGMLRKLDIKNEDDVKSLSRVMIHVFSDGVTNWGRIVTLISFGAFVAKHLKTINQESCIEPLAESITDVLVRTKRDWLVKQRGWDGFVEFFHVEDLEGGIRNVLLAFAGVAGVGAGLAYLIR

| SMILES | Ki (MCL-1) | IC50 (H929 cells) |
| --- | --- | --- |
| CC1(C)OC/C=C/[C@H](OCC(=O)N2CCC2)[C@@H]2CC[C@H]2CN2C[C@@]3(CCCc4cc(Cl)ccc43)COc3ccc(cc32)S(=O)(=O)NC1=O [Example 279, (3R,6R,7S,8E,22S)-7-[2-(Azetidin-1-yl)-2-oxo-ethoxy]-6′-chloro-12,12-dimethyl-15,15-dioxo-spiro[11,20-dioxa-15-thia-1,14-diazatetracyclo[14.7.2.03,6.019,24]pentacosa-8,16,18,24-tetraene-22,1′-tetralin]-13-one] | < 1 nM | < 500 nM |
| O=C1Cc2cc(OCCN3CCOCC3)cc(c2)OC[C@@H]2CC[C@H]2CN2C[C@@]3(CCCc4cc(Cl)ccc43)COc3ccc(cc32)S(=O)(=O)N1 [Example 105, (3R,6R,24S)-6′-Chloro-11-(2-morpholinoethoxy)-17,17-dioxo-spiro[8,22-dioxa-17-thia-1,16-diazapentacyclo[16.7.2.19,13.03,6.021,26]octacosa-9(28),10,12,18(27),19,21(26)-hexaene-24,1′-tetralin]-15-one] | 1 to 100 nM | > 1000 nM |
| CO[C@H]1/C=C/CCC(=O)NS(=O)(=O)c2ccc3c(c2)N(C[C@@H]2CC[C@H]21)C[C@@]1(CCCc2cc(Cl)ccc21)CO3 [Example 75, (3R,6R,7S,8E,21S)-6′-Chloro-7-methoxy-14,14-dioxo-spiro[19-oxa-14-thia-1,13-diazatetracyclo[13.7.2.0˜3,6.0˜18,23]tetracosa-8,15,17,23-tetraene-21,1′-tetralin]-12-one] | 1 to 100 nM | > 1000 nM |
| COC[C@H]1C(=O)NS(=O)(=O)c2ccc3c(c2)N(C[C@@H]2CC[C@H]2[C@H](O)/C=C/C[C@@H]1C)C[C@@]1(CCCc2cc(Cl)ccc21)CO3 [Example 88, (3R,6R,7R,8E,11S,12S,22S)-6′-Chloro-7-hydroxy-12-(methoxymethyl)-11-methyl-15,15-dioxo-spiro[20-oxa-15-thia-1,14-diazatetracyclo[14.7.2.03,6.019,24]pentacosa-8,16,18,24-tetraene-22,1′-tetralin]-13-one] | < 1 nM | < 1000 nM |
| CO[C@H]1/C=C/COCC(=O)NS(=O)(=O)c2ccc3c(c2)N(C[C@@H]2CC[C@H]21)C[C@@]1(CCCc2cc(Cl)ccc21)CO3 [Example 111, (3R,6R,7S,8E,22S)-6′-Chloro-7-methoxy-15,15-dioxo-spiro[[11,20]dioxa[15]thia-1,14-diazatetracyclo[14.7.2.03,6.019,24]pentacosa[8,16(25),17,19(24)]tetraene-22,1′-tetralin]-13-one] | 1 to 100 nM | > 1000 nM |
| CN1C/C=C/[C@H](OCCN2CC(F)C2)[C@@H]2CC[C@H]2CN2C[C@@]3(CCCc4cc(Cl)ccc43)COc3ccc(cc32)S(=O)(=O)NC(=O)C1(C)C [Example 275, (3R,6R,7S,8E,22S)-6′-Chloro-7-[2-(3-fluoroazetidin-1-yl)ethoxy]-11,12,12-trimethyl-15,15-dioxo-spiro[20-oxa-15-thia-1,11,14-triazatetracyclo[14.7.2.03,6.019,24]pentacosa-8,16,18,24-tetraene-22,1′-tetralin]-13-one] | 1 to 100 nM | < 500 nM |
| CN1CCN(CCNC(=O)O[C@H]2/C=C/COC(C)(C)C(=O)NS(=O)(=O)c3ccc4c(c3)N(C[C@@H]3CC[C@H]32)C[C@@]2(CCCc3cc(Cl)ccc32)CO4)CC1 [Example 149, [(3R,6R,7S,8E,22S)-6′-Chloro-12,12-dimethyl-13,15,15-trioxo-spiro[11,20-dioxa-15-thia-1,14-diazatetracyclo[14.7.2.03,6.019,24]pentacosa-8,16,18,24-tetraene-22,1′-tetralin]-7-yl] N-[2-(4-methylpiperazin-1-yl)ethyl]carbamate] | < 1 nM | < 500 nM |
| COC(=O)N1C/C=C/[C@@H](OC)[C@@H]2CC[C@H]2CN2C[C@@]3(CCCc4cc(Cl)ccc43)COc3ccc(cc32)S(=O)(=O)NC(=O)[C@H]1C [Example 134, Methyl (3R,6R,7R,8E,12R,22S)-6′-Chloro-7-methoxy-12-methyl-13,15,15-trioxo-spiro[20-oxa-15-thia-1,11,14-triazatetracyclo[14.7.2.03,6.019,24]pentacosa-8,16,18,24-tetraene-22,1′-tetralin]-11-carboxylate] | 1 to 100 nM | > 1000 nM |
| CN1C/C=C/[C@H](OCCN2CCCCC2)[C@@H]2CC[C@H]2CN2C[C@@]3(CCCc4cc(Cl)ccc43)COc3ccc(cc32)S(=O)(=O)NC(=O)C1(C)C [Example 289, (3R,6R,7S,8E,22S)-6′-Chloro-11,12,12-trimethyl-15,15-dioxo-7-[2-(1-piperidyl)ethoxy]spiro[20-oxa-15-thia-1,11,14-triazatetracyclo[14.7.2.03,6.019,24]pentacosa-8,16,18,24-tetraene-22,1′-tetralin]-13-one] | 1 to 100 nM | > 1000 nM |
| CC(C)NC(=O)O[C@H]1/C=C/COC(C)(C)C(=O)NS(=O)(=O)c2ccc3c(c2)N(C[C@@H]2CC[C@H]21)C[C@@]1(CCCc2cc(Cl)ccc21)CO3 [Example 181, [(3R,6R,7S,8E,22S)-6′-Chloro-12,12-dimethyl-13,15,15-trioxo-spiro[11,20-dioxa-15-thia-1,14-diazatetracyclo[14.7.2.03,6.019,24]pentacosa-8,16,18,24-tetraene-22,1′-tetralin]-7-yl] N-isopropylcarbamate] | < 1 nM | < 500 nM |
| CN(C)C(=O)CO[C@H]1/C=C/COC(C)(C)C(=O)NS(=O)(=O)c2ccc3c(c2)N(C[C@@H]2CC[C@H]21)C[C@@]1(CCCc2cc(Cl)ccc21)CO3 [Example 140, 2-[(3R,6R,7S,8E,22S)-6′-Chloro-12,12-dimethyl-13,15,15-trioxo-spiro[11,20-dioxa-15-thia-1,14-diazatetracyclo[14.7.2.03,6.019,24]pentacosa-8,16,18,24-tetraene-22,1′-tetralin]-7-yl]oxy-N,N-dimethyl-acetamide] | < 1 nM | < 500 nM |
| CCN1C/C=C/[C@H](OC(=O)NC2CCOCC2)[C@@H]2CC[C@H]2CN2C[C@@]3(CCCc4cc(Cl)ccc43)COc3ccc(cc32)S(=O)(=O)NC(=O)C1(C)C [Example 220, [(3R,6R,7S,8E,22S)-6′-Chloro-11-ethyl-12,12-dimethyl-13,15,15-trioxo-spiro[20-oxa-15-thia-1,11,14-triazatetracyclo[14.7.2.03,6.019,24]pentacosa-8,16,18,24-tetraene-22,1′-tetralin]-7-yl]N-tetrahydropyran-4-ylcarbamate] | < 1 nM | < 500 nM |
| CCN1C/C=C/[C@H](O)[C@@H]2CC[C@H]2CN2C[C@@]3(CCCc4cc(Cl)ccc43)COc3ccc(cc32)S(=O)(=O)NC(=O)C1(C)C [Example 219, (3R,6R,7S,8E,22S)-6′-Chloro-7-hydroxy-11-ethyl-12,12-dimethyl-15,15-dioxo-spiro[20-oxa-15-thia-1,11,14-triazatetracyclo[14.7.2.03,6.019,24]pentacosa-8,16,18,24-tetraene-22,1′-tetralin]-13-one] | 1 to 100 nM | < 500 nM |
| CO[C@@H]1/C=C/CNC(=O)NS(=O)(=O)c2ccc3c(c2)N(C[C@@H]2CC[C@H]21)C[C@@]1(CCCc2cc(Cl)ccc21)CO3 [Example 131, (3R,6R,7R,8E,21S)-6′-chloro-7-methoxy-14,14-dioxo-spiro[19-oxa-14-thia-1,11,13-triazatetracyclo[13.7.2.03,6.018,23]tetracosa-8,15,17,23-tetraene-21,1′-tetralin]-12-one] | 1 to 100 nM | > 1000 nM |

From patent US11130769B2 (Prelude Therapeutics Incorporated, priority 2018, dated 2021)
